Consider 25 compounds from patent US11203574B2 (BioCryst Pharmaceuticals, Inc., priority 2014, dated 2021).

The test has as its target human plasma kallikrein (Homo sapiens (Human), UniProt P03952). Briefly: Plasma kallikrein activity assay (chromogenic substrate S2302). It counts as biochemical. As to conditions: 2 nM kallikrein, 80 μM S2302, 30° C., pH 7.8; Ki by Cheng-Prusoff equation; values given as ranges; read-out: Ki.

Chain of human plasma kallikrein (P03952 whole entry, looked up): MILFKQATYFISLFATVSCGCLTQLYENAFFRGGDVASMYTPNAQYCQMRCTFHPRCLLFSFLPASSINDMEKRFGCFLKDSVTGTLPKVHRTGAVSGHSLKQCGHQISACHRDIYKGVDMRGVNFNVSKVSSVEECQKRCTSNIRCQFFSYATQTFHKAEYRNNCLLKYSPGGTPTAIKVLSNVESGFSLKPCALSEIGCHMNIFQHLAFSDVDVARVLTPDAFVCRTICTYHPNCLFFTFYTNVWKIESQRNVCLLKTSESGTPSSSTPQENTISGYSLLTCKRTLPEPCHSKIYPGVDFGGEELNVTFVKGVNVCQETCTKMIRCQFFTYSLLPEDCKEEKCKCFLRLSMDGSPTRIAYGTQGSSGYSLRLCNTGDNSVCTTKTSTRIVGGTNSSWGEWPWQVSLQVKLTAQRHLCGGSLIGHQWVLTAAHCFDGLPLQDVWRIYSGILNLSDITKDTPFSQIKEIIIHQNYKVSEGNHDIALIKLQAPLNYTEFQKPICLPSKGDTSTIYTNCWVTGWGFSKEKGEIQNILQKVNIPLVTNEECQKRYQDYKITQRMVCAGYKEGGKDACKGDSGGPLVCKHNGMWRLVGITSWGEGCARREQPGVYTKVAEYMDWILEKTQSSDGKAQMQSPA
Chain of human plasma kallikrein (P03952 whole entry partner, looked up): as the sequence (P03952 whole entry, looked up) above
Procedure: Plasma Kallikrein Activity Assay.
The effect of compounds of the invention on human plasma kallikrein activity was determined using the chromogenic substrates (DiaPharma Group, Inc., West Chester, Ohio, USA). In these experiments, 2 nM kallikrein (Enzyme Research Laboratories, South Bend, Ind., USA) was incubated with 80 μM S2302 (H-D-Pro-Phe-Arg-p-nitroaniline) in the absence or presence of increasing concentrations of compounds of the invention in a final volume of 200 μL Tris-HCl buffer (200 mM NaCl; mM CaCl2; 50 mM Tris-HCl, pH 7.8).
Data were analyzed using SigmaPlot software (Systat Software, Inc., San Jose, Calif., USA) (Four Parameter Logistic Curve).

What is called Ki is the equilibrium dissociation constant of an inhibitor or competing ligand from its target. As for `NCc1cccc(-n2nc(C(F)(F)F)cc2C(=O)Nc2cc(C(CCC3CC3)N3CCCCC3=O)ccc2F)c1` (single isomer, unassigned; (+)) [261k, (+)-1-(3-(aminomethyl)phenyl)-N-(5-(3-cyclopropyl-1-(2-oxopiperidin-1-yl)propyl)-2-fluorophenyl)-3-(trifluoromethyl)-1H-pyrazole-5-carboxamide], the Ki is 0.1 to 50 nM.

Turning to `Cc1cc(C(N)(CCC2CC2)c2ccc(F)c(NC(=O)c3cc(C(F)(F)F)nn3-c3cccc(CN)c3)c2)ccn1` (single isomer, unassigned; (+)) [266j, (+)-N-(5-(1-amino-3-cyclopropyl-1-(2-methylpyridin-4-yl)propyl)-2-fluorophenyl)-1-(3-(aminomethyl)phenyl)-3-(trifluoromethyl)-1H-pyrazole-5-carboxamide], the Ki lay in the range of 0.1 to 50 nM.

As for `Nc1nccc2ccc(-n3nc(C(=O)Nc4cc(C(N)(CCC5CC5)c5ccncc5)ccc4F)cc3C(F)(F)F)cc12` (single isomer, unassigned; (+)) [268g, (+)-N-(5-(1-amino-3-cyclopropyl-1-(pyridin-4-yl)propyl)-2-fluorophenyl)-1-(1-aminoisoquinolin-7-yl)-5-(trifluoromethyl)-1H-pyrazole-3-carboxamide], the inhibition constant Ki lay in the range of 50 to 100 nM.

Regarding `NCc1cccc(-n2nc(C(F)(F)F)cc2C(=O)Nc2cccc(C(OCC3CC3)c3ccccn3)c2)c1` (single isomer, unassigned; (-)) [43g, (−)-1-(3-(aminomethyl)phenyl)-N-(3-((cyclopropylmethoxy)(pyridin-2-yl)methyl)-phenyl)-3-(trifluoromethyl)-1H-pyrazole-5-carboxamide], the inhibition constant Ki was 0.1 to 50 nM.

For the compound `NCc1cccc(-n2nc(C(F)(F)F)cc2C(=O)Nc2cccc(C(OCC3CC3)c3cccnc3)c2)c1` (single isomer, unassigned; (-)) [44e, (−)-1-(3-(aminomethyl)phenyl)-N-(3-((cyclopropylmethoxy)(pyridin-3-yl)methyl)phenyl)-3-(trifluoromethyl)-1H-pyrazole-5-carboxamide], the Ki fell in the range of 0.1 to 50 nM.

For the compound `NCc1cccc(-n2nc(C(F)(F)F)cc2C(=O)Nc2cccc(C(O)(CCC3CC3)c3ccccc3)c2)c1` (single isomer, unassigned; (-)) [46i, (−)-1-(3-(aminomethyl)phenyl)-N-(3-(3-cyclopropyl-1-hydroxy-1-phenylpropyl)phenyl)-3-(trifluoromethyl)-1H-pyrazole-5-carboxamide], the Ki was in the range of 0.1 to 50 nM.

For `NCc1cccc(-n2nc(C(F)(F)F)cc2C(=O)Nc2cccc(C(O)(CCC3CC3)c3cccnc3)c2)c1` (single isomer, unassigned; (-)) [47g, (−)-1-(3-(aminomethyl)phenyl)-N-(3-(3-cyclopropyl-1-hydroxy-1-(pyridin-3-yl)propyl)phenyl)-3-(trifluoromethyl)-1H-pyrazole-5-carboxamide], the inhibitory constant (Ki) is 0.1 to 50 nM.

On to `NCc1cccc(-n2nc(C(F)(F)F)cc2C(=O)Nc2cccc(C(OCC3CC3)c3cccc(N)c3)c2)c1` (single isomer, unassigned; (-)) [64a, (−)-1-(3-(aminomethyl)phenyl)-N-(3-((3-aminophenyl)(cyclopropyl-methoxy)methyl)phenyl)-3-(trifluoromethyl)-1H-pyrazole-5-carboxamide], for which the inhibition constant (Ki) is 0.1 to 50 nM.

As for `NCc1cccc(-n2nc(C(F)(F)F)cc2C(=O)Nc2cccc(C(OCC3CC3)c3ccccc3)c2)c1` (single isomer, unassigned; (-)) [165e, (−)-1-(3-(aminomethyl)phenyl)-N-(3-((cyclopropylmethoxy)(phenyl)methyl)phenyl)-3-(trifluoromethyl)-1H-pyrazole-5-carboxamide], the Ki fell in the range of 0.1 to 50 nM.

Regarding `NCc1cccc(-n2nc(C(F)(F)F)cc2C(=O)Nc2cc(C(c3ccccc3)N(CC3CC3)CC3CC3)ccc2F)c1` (single isomer, unassigned; (-)) [206d, (−)-1-(3-(aminomethyl)phenyl)-N-(5-((bis(cyclopropylmethyl)amino)(phenyl)methyl)-2-fluorophenyl)-3-(trifluoromethyl)-1H pyrazole-5-carboxamide], the inhibition constant Ki is 0.1 to 50 nM.

As for `NCc1cccc(-n2nc(C(F)(F)F)cc2C(=O)Nc2cc(C(N)(CCC3CC3)c3ccncc3)ccc2F)c1` (single isomer, unassigned; (-)) [217d, (−)-N-(5-(1-amino-3-cyclopropyl-1-(pyridin-4-yl)propyl)-2-fluorophenyl)-1-(3-(aminomethyl)phenyl)-3-(trifluoromethyl)-1H-pyrazole-5-carboxamide], the Ki is 50 to 100 nM.

For the compound `NCc1cccc(-n2nc(C(F)(F)F)cc2C(=O)Nc2cc(C(N)(CCC3CC3)c3cccc(C(N)=O)c3)ccc2F)c1` (single isomer, unassigned; (-)) [225a, (−)-N-(5-(1-amino-1-(3-carbamoylphenyl)-3-cyclopropylpropyl)-2-fluorophenyl)-1-(3-(aminomethyl)phenyl)-3-(trifluoromethyl)-1H-pyrazole-5-carboxamide], the Ki lay in the range of 0.1 to 50 nM.

Turning to `N=C(N)c1cccc(-n2nc(C(F)(F)F)cc2C(=O)Nc2cc(C(NCC3CC3)c3ccccc3)ccc2F)c1` (single isomer, unassigned; (-)) [227d, (−)-1-(3-carbamimidoylphenyl)-N-(5-((cyclopropylmethylamino)(phenyl)methyl)-2-fluorophenyl)-3-(trifluoromethyl)-1H-pyrazole-5-carboxamide], the Ki was in the range of 0.1 to 50 nM.

With `N#Cc1cc(C(=O)Nc2cc(C(NCC3CC3)c3ccccc3)ccc2F)n(-c2cccc(CN)c2)n1` (single isomer, unassigned; (-)) [240b, (−)-1-(3-(aminomethyl)phenyl)-3-cyano-N-(5-((cyclopropylmethylamino)(phenyl)methyl)-2-fluorophenyl)-1H-pyrazole-5-carboxamide], the inhibition constant Ki lay in the range of 0.1 to 50 nM.

Turning to `CC(C)(C)C(=O)NC(CCC1CC1)(c1cccnc1)c1ccc(F)c(NC(=O)c2cc(C(F)(F)F)nn2-c2cccc(CN)c2)c1` (single isomer, unassigned; (-)) [244g, (−)-1-(3-(aminomethyl)phenyl)-N-(5-(3-cyclopropyl-1-pivalamido-1-(pyridin-3-yl)propyl)-2-fluorophenyl)-3-(trifluoromethyl)-1H-pyrazole-5-carboxamide], the inhibition constant Ki was 0.1 to 50 nM.

On to `CC(=O)NC(CCC1CC1)(c1cccnc1)c1ccc(F)c(NC(=O)c2cc(C(F)(F)F)nn2-c2cccc(CN)c2)c1` (single isomer, unassigned; (-)) [244h, (−)-N-(5-(1-acetamido-3-cyclopropyl-1-(pyridin-3-yl)propyl)-2-fluorophenyl)-1-(3-(aminomethyl)phenyl)-3-(trifluoromethyl)-1H-pyrazole-5-carboxamide], for which the Ki was in the range of 0.1 to 50 nM.

As for `CCC(=O)NC(CCC1CC1)(c1cccnc1)c1ccc(F)c(NC(=O)c2cc(C(F)(F)F)nn2-c2cccc(CN)c2)c1` (single isomer, unassigned; (-)) [244i, (−)-1-(3-(aminomethyl)phenyl)-N-(5-(3-cyclopropyl-1-propionamido-1-(pyridin-3-yl)propyl)-2-fluorophenyl)-3-(trifluoromethyl)-1H-pyrazole-5-carboxamide], the inhibition constant Ki was 0.1 to 50 nM.

With `CC(C)C(=O)NC(CCC1CC1)(c1cccnc1)c1ccc(F)c(NC(=O)c2cc(C(F)(F)F)nn2-c2cccc(CN)c2)c1` (single isomer, unassigned; (-)) [244j, (−)-1-(3-(aminomethyl)phenyl)-N-(5-(3-cyclopropyl-1-isobutyramido-1-(pyridin-3-yl)propyl)-2-fluorophenyl)-3-(trifluoromethyl)-1H-pyrazole-5-carboxamide], the Ki lay within 0.1 to 50 nM.

As to `CC(C)CC(=O)NC(CCC1CC1)(c1cccnc1)c1ccc(F)c(NC(=O)c2cc(C(F)(F)F)nn2-c2cccc(CN)c2)c1` (single isomer, unassigned; (-)) [244k, (−)-1-(3-(aminomethyl)phenyl)-N-(5-(3-cyclopropyl-1-(3-methylbutanamido)-1-(pyridin-3-yl)propyl)-2-fluorophenyl)-3-(trifluoromethyl)-1H-pyrazole-5-carboxamide], the Ki is 0.1 to 50 nM.

In the case of `CS(=O)(=O)NC(CCC1CC1)(c1ccncc1)c1ccc(F)c(NC(=O)c2cc(C(F)(F)F)nn2-c2cccc(CN)c2)c1` (single isomer, unassigned; (-)) [245c, (−)-1-(3-(aminomethyl)phenyl)-N-(5-(3-cyclopropyl-1-(methylsulfonamido)-1-(pyridin-4-yl)propyl)-2-fluorophenyl)-3-(trifluoromethyl)-1H-pyrazole-5-carboxamide], the Ki lay within 0.1 to 50 nM.

`CS(=O)(=O)NC(CCC1CC1)(c1ccncc1)c1ccc(F)c(NC(=O)c2cc(C(F)(F)F)nn2-c2ccc3ccnc(N)c3c2)c1` (single isomer, unassigned; (-)) [262f, (−)-1-(1-aminoisoquinolin-7-yl)-N-(5-(3-cyclopropyl-1-(methylsulfonamido)-1-(pyridin-4-yl)propyl)-2-fluorophenyl)-3-(trifluoromethyl)-1H-pyrazole-5-carboxamide]: the inhibition constant (Ki) lay in the range of 0.1 to 50 nM.

Regarding `CCNCc1cccc(-n2nc(C(F)(F)F)cc2C(=O)Nc2cc(C(NCC3CC3)c3ccccc3)ccc2F)c1` (single isomer, unassigned; (-)) [270a, (−)-N-(5-((cyclopropylmethylamino)(phenyl)methyl)-2-fluorophenyl)-1-(3-((ethylamino)methyl)phenyl)-3-(trifluoromethyl)-1H-pyrazole-5-carboxamide], the Ki fell in the range of 50 to 100 nM.

Consider `CCOC(c1ccccc1)c1cccc(NC(=O)c2cc(C(F)(F)F)nn2-c2cccc(CN)c2)c1` (stereo not shown) [18g, 1-(3-(aminomethyl)phenyl)-N-(3-(ethoxy(phenyl)methyl)phenyl)-3-(trifluoromethyl)-1H-pyrazole-5-carboxamide], for which the Ki fell in the range of 50 to 100 nM.

Regarding `CCCOC(c1ccccc1)c1cccc(NC(=O)c2cc(C(F)(F)F)nn2-c2cccc(CN)c2)c1` (stereo not shown) [18h, 1-(3-(aminomethyl)phenyl)-N-(3-(phenyl(propoxy)methyl)phenyl)-3-(trifluoromethyl)-1H-pyrazole-5-carboxamide], the Ki was in the range of 50 to 100 nM.

Turning to `CC(C)COC(c1ccccc1)c1cccc(NC(=O)c2cc(C(F)(F)F)nn2-c2cccc(CN)c2)c1` (stereo not shown) [18i, 1-(3-(aminomethyl)phenyl)-N-(3-(isobutoxy(phenyl)methyl)phenyl)-3-(trifluoromethyl)-1H-pyrazole-5-carboxamide], the Ki was in the range of 50 to 100 nM.
